Experimental data reported in US5208223A, “Phosphocholine derivative inhibitors of phospholipase A2” (American Cyanamid Company, priority 1992, dated 1993).
“And” between values parts separate entries of the source, which are not always exact repeats. Equal values may be shown once. Where a name gives a salt, the structure may show the parent alone.

How the values were obtained:
Format in all cases: biochemical
[1] = target: T1, porcine pancreatic PLA2 (Sus scrofa, UniProt P00592); test: MHPLA2 assay: in vitro porcine pancreatic phospholipase A2, mixed micelle design, [s]=10 μm; settings: for % Inh. / inhibition at 20 µg/mL: subs. con. 10; for inhibition at 25 µg/mL / inhibition at 10 µg/mL: subs. con. 10, read-out: % Inh.; for IC50: subs. con. 10, read-out: IC50 (converted)
T1 construct: purchased Sigma
Protocol: (§1) Phospholipase A2 activity was measured by a radiochemical assay in which labeled synthetic phosphatidylcholine substrate is converted by porcine pancreatic PLA2 to free radiolabeled arachidonate and lyso PC. Radiolabeled arachidonate is extracted from the reaction mixture and separated from unreacted substrate by column chromatography or TLC. Radioactivity (cpm) in samples is quantitated by liquid scintillation counting. Specific details are as follows:
(§2) Labeled substrate(1-stearyl-2-^3 H-arachidonylphosphatidylcholine; Amersham, sp. act. 84 (uCi/mmole, 0.025 to 0.2 uCi/assay tube and unlabeled substrates (Avanti), in sufficient quantity to give 20,000 cpm to 50,000 cpm and 10 μM to 1,000 μM final concentration/assay tube are dried under a stream of nitrogen. The PLA2 and mPLA2 assays utilized a […] substrate concentration. The mHPLA2 and HPLA2 assays (vida infra) utilized a 10 μM substrate concentration and the SmPLA2 assay utilized a substrate concentration ranging from 100 to 1000 μm. The substrate is then redissolved in 0.1M tris-HCl buffer, pH 9.0 containing 10 mM CaCl2 and 10 mM Na taurocholate detergent. The mixture is sonicated in a Kontes Sonifier to yield a homogeneous dispersion. The "mixed" micellar substrate is clear. An aliquot is reserved for a cpm count (total substrate). The total reaction volume is 500 μL; siliconized glassware or plasticware is used throughout. Enzyme (Sigma, sp. act.>690 U/mg protein and preferably 900 U/mg protein) is diluted 1:750 or 1:1000 in 0.1M tris-HCl buffer, pH 9.0 (without Ca^++ and detergent). Enzyme dilution depends on substrate concentration and required enzyme concentration.
(§3) The substrate in buffer is kept on ice until the reaction is started. The reaction is started by adding 10 μL of diluted enzyme solution to 490 μL of micellar substrate solution. Samples are incubated in a 37° C. water bath for 15 minutes with gentle mixing. The reaction is terminated by the addition of 100 μL of 1M fresh trichloroacetic acid (TCA) solution and chilling the tubes on ice for 30 minutes.
(§4) Samples (600 μL) are extracted with 3 ml CHCl3 /MeOH (2:1) for thin layer chromatography or in hexane/ether (9:1) for column chromatography. The phases are separated by gentle centrifugation at 700 rpm×5'. The organic phase is recovered.
(§5) Labeled arachidonate extracted with CHCl3 /MeOH is separated on silica gel G TLC plates (Analtech). Twenty μL of a 2 mg/ml internal standard solution of arachidonic acid (Sigma) is combined with 2-3 ml of the organic phase. The entire mixture is dried under nitrogen and redissolved in 50 μL of CHCl3 /MeOH (2:1). A 20 μL sample is counted in 10 ml of Beckman Redi-solv HP and spotted on silica gel G plates. The solvent system used to develop the plate is CHCl3 /MeOH/13.5N NH3 /H2 O (70:30:4:1). Plates are developed in a glass chamber for 1-11/2 hours, air dried, and the spots visualized in an iodine vapor chamber. Standards of phosphatidylcholine, lyso PC, and arachidonic acid (Sigma) are made as 2 mg/ml stocks in CHCl3 /MeOH (2:1) and spotted on plates. Spots corresponding to arachidonate and phospholipid are scraped and counted in 10 ml Beckman Redi-Solv HP scintillation fluid.
(§6) Samples are extracted with hexane/ether and the upper organic phase recovered. An aliquot is applied to a Silicar CC4 (Malincrodt) column. Columns are prepared using 1 ml of a 1:1 slurry of silicar CC4 in hexane/ether in a Pasteur pipet (approx. 2 cm height). Columns are rinsed with 500 μL of hexane/ether before adding the sample (300-600 μL) to the column. Columns are eluted with a total of 6 ml of hexane/ether. The 6 ml sample is counted in 10 ml of Beckman Redi-Solv HP scintillation fluid.
(§7) or the phospholipase A2 assay, compounds are prepared as 1 mg/ml stock solutions in MeOH and diluted appropriately in PBS. […]

[2] = target: T1, porcine pancreatic PLA2; test: PLA2 assay: in vitro porcine pancreatic phospholipase A2, preincubation of drug+enzyme, substrate 2 nM; settings: subs. con. 2
Protocol: as §1, §2, §3, §4, §5, §6
or the phospholipase A2 assay, compounds are prepared as 1 mg/ml stock solutions in MeOH and diluted appropriately in PBS.

[3] = target: T1, porcine pancreatic PLA2; test: MPLA2 assay: in vitro porcine pancreatic phospholipase A2, mixed micelle design, substrate 2 nM
Protocol: as §1, §2, §3, §4, §5, §6, §7

[4] = dose 10 μ/ml, preincubation, read-out: % Inh. Avg.
[5] = dose 20 μ/ml, preincubation, read-out: % Inh.
[6] = preincubation, read-out: IC50 (converted)
[7] = dose 10 μ/ml, subs. con. 2, read-out: % Inh.
[8] = dose 20 μ/ml, subs. con. 2, read-out: % Inh.
[9] = dose 25 μ/ml, subs. con. 2, read-out: % Inh.
[10] = dose 10 μ/ml, preincubation, read-out: % Inh.
[11] = dose 25 μ/ml, subs. con. 2, read-out: % Inh. Avg.

T1 sequence (P00592 23-146): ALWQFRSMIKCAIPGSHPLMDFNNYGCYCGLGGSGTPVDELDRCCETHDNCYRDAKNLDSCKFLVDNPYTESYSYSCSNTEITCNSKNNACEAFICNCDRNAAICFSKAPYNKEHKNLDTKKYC

Compound	inhibition at 25 µg/mL ([1]; dose 25 μ/ml)	inhibition at 10 µg/mL [2, 4]	inhibition at 20 µg/mL [2, 5]	IC50 [2, 6]	inhibition at 10 µg/mL [3, 7]	inhibition at 20 µg/mL [3, 8]	inhibition at 25 µg/mL [3, 9]	IC50 ([3]; subs. con. 2)	inhibition at 10 µg/mL ([1]; dose 10 μ/ml)	inhibition at 20 µg/mL ([1]; dose 20 μ/ml)	inhibition at 10 µg/mL [2, 10]	other results
CCCCCCCCCCCCCCCCOCC(COP(=O)([O-])OCC[N+](C)(C)C)CSCCCCCCCCCCCCCCCC (stereo not drawn) [7-[(Hexadecylthio)methyl]-4-hydroxy-N,N,N-trimethyl-3,5,9-trioxa-4-phosphapentacosan-1-aminium, hydroxide, inner salt, 4-oxide]	81%	26%	61%	4.75 µM	59%	69%	79%	7.61 µM	–	–	–	% Inh. ([1]; dose 10 μ/ml): STIM; % Inh. ([1]; dose 20 μ/ml): STIM
CCCCCCCCCCCCCCCCOCC(COP(=O)([O-])OCC[N+](C)(C)C)CP(=O)(OCC)OCC (stereo not drawn)	45%	74%	81%	8.12 µM	36%	60%	–	27.3 µM	18%	44%	71%	IC50 [1]: 91.3 µM and 265 µM
CCCCCCCCCCCCCCCCOCC(CC=NO)COP(=O)([O-])OCC[N+](C)(C)C (stereo not drawn) [4-Hydroxy-7-[2-(hydroxyimino)ethyl]-N,N,N-trimethyl-3,5,9-trioxa-4-phosphaoentacosan-1-aminium, hydroxide, inner salt, 4-oxide]	28%	53%	81%	10.1 µM	19%	57%	51%	–	0%	8%	56%	inhibition at 25 µg/mL [3, 11]: 55%
CCCCCCCCCCCCCCCCSCCCOP(=O)([O-])OCC[N+](C)(C)C [3,5-Dioxa-9-thia-4-phosphapentacosan-1-aminium, 4-hydroxy-N,N,N-trimethyl-,hydroxide, inner salt, 4-oxide]	–	4.5%	64%	12.9 µM	46%	83%	74%	16 µM	–	–	54%	% Inh. ([1]; dose 25 μ/ml): STIM; inhibition at 25 µg/mL [3, 11]: 80%
CCCCCOCC(COP(=O)([O-])OCC[N+](C)(C)C)OP(=O)(OC)OCCCCC (single isomer, unassigned; more polar) [3,5,8,10-Tetraoxa-4,9 diphosphapentadecan-1-aminium, 4-hydroxy-9-methoxy-N,N,N-trimethyl-7-[(pentyloxy)methyl]-, hydroxide, inner salt, 4,9-dioxide, more polar isomer]	0%	–	11%	–	–	–	–	–	–	–	5%	% Inh. ([3]; dose 25 μ/ml, subs. con. 2): STIM
CCCCCCCCCCCCCCCCOCC(COP(=O)([O-])OCC[N+](C)(C)C)COP(=O)(Oc1ccccc1)Oc1ccccc1 (stereo not drawn) [4-[(Hexadecyloxy)methyl]-7-hydroxy-N,N,N-trimethyl-1,1-diphenoxy-2.6.8 trioxa-1.7-diophosphadecan-10-aminium, hydroxide, inner salt, 1,7-dioxide]	–	–	–	–	–	–	–	–	–	–	–	% Inh. ([1]; dose 25 μ/ml): 33%; IC50 ([2]; IC50, preincubation): 6.59 µM; % Inh. ([2]; dose 10 μ/ml, preincubation): 75%; % Inh. ([2]; dose 20 μ/ml, preincubation): 85%; % Inh. ([3]; dose 25 μ/ml, subs. con. 2): 62% and 97%; % Inh. Avg. ([3]; dose 25 μ/ml, subs. con. 2): 79%
CCCCCCCCCCCCCCCCOCC(COP(=O)([O-])OCC[N+](C)(C)C)CC(=O)C(F)(F)CCCCCCCCCCCCCCCC (stereo not drawn) [3,5,9-Trioxa-4-phosphapentacosan-1-aminium, 7-(3,3-difluoro-2-oxononadecyl)-4-hydroxy-N,N,N-trimethyl-, hydroxide, inner salt, 4-oxide]	8%	–	41%	–	88%	89%	80%	–	0%	9%	38%	–
CCCCCCCCCCCCCCCCOCC(COP(=O)([O-])OCC[N+](C)(C)C)CC(=O)C(=O)CCCCCCCCCCCCCCCC (stereo not drawn) [7-(2,3-Dioxononadecyl)-4-hydroxy-N,N,N-trimethyl-3,5,9-trioxa-4-phosphapentacosan-1-aminium, hydroxide, inner salt, 4-oxide]	0%	–	61%	7.1 µM	–	–	25%	–	–	–	61%	–
CCCCCCCCCCCCCCCC[C@]1(COP(=O)([O-])OCC[N+](C)(C)C)CC(=O)N1 [(2R)-2-[[[(2-Hexadecyl-4-oxo-2-azetidinyl)methoxy]hydroxyphosphinyl]oxy]-N,N,N-trimethylethanaminium, hydroxide, inner salt]	26%	–	79%	2.85 µM	–	–	–	–	–	0%	82%	% Inh. ([1]; dose 10 μ/ml): STIM; % Inh. ([3]; dose 10 μ/ml, subs. con. 2): STIM; % Inh. ([3]; dose 20 μ/ml, subs. con. 2): STIM
C=C(CC(COCCCCCCCCCCCCCCCC)COP(=O)([O-])OCC[N+](C)(C)C)C(F)(F)CCCCCCCCCCCCCCCC (stereo not drawn) [3,5,9-Trioxa-4-phosphapentacosan-1-aminium, 7-(3,3-difluoro-2-methylenenonadecyl)-4-hydroxy-N,N,N-trimethyl-, hydroxide, inner salt, 4-oxide]	11%	–	38%	–	–	–	80%	–	–	–	38%	–
CCCCCCCCCCCCCCCCC#CCC(COCCCCCCCCCCCCCCCC)COP(=O)([O-])OCC[N+](C)(C)C (stereo not drawn) [7-(2-Nonadecynyl)-4-hydroxy-N,N,N-trimethyl-3,5,9-trioxa-4-phosphapentacosan-1-aminium, hydroxide, inner salt, 4-oxide]	16%	–	60%	6.73 µM	–	–	65%	–	–	–	57%	–
CCCCCCCCCCCCCCCCS(=O)(=O)CCCOP(=O)([O-])OCC[N+](C)(C)C [4-Hydroxy-N,N,N-trimethyl-3,5-dioxa-9-thia-4-phosphapentacosan-1-aminium, hydroxide, inner salt, 4.9.9-trioxide]	24%	69%	88%	9.54 µM	24%	62%	–	37.2 µM	0%	19%	65%	IC50 [1]: 121 µM
